{"source": "ChEMBL document CHEMBL3232739", "about": "“Discovery of a potent and dissociated non-steroidal glucocorticoid receptor agonist containing an alkyl carbinol pharmacophore” (Bioorg Med Chem Lett, 2014)", "key": {"[1]": {"system": "Mus musculus", "test": "Antiarthritic activity in B10.RIII mouse collagen/complete Freund's adjuvant-induced arthritis model assessed as reduction of disease score at 100 mg/kg, po qd for 5 weeks relative to control", "type": "functional", "parameters": "scale not given: the % may be the effect or the level left"}, "[2]": {"system": "Mus musculus", "test": "Toxicity in B10.RIII mouse assessed as free fatty acid level in serum at 30 mg/kg, po qd for 5 weeks relative to control", "type": "organism-based", "parameters": "dose 30 mg/kg, route oral", "conditions": "in vivo, 840 h"}, "[3]": {"target": "T1, Mineralocorticoid receptor (Homo sapiens, UniProt P08235)", "T1 sequence (P08235 whole entry)": "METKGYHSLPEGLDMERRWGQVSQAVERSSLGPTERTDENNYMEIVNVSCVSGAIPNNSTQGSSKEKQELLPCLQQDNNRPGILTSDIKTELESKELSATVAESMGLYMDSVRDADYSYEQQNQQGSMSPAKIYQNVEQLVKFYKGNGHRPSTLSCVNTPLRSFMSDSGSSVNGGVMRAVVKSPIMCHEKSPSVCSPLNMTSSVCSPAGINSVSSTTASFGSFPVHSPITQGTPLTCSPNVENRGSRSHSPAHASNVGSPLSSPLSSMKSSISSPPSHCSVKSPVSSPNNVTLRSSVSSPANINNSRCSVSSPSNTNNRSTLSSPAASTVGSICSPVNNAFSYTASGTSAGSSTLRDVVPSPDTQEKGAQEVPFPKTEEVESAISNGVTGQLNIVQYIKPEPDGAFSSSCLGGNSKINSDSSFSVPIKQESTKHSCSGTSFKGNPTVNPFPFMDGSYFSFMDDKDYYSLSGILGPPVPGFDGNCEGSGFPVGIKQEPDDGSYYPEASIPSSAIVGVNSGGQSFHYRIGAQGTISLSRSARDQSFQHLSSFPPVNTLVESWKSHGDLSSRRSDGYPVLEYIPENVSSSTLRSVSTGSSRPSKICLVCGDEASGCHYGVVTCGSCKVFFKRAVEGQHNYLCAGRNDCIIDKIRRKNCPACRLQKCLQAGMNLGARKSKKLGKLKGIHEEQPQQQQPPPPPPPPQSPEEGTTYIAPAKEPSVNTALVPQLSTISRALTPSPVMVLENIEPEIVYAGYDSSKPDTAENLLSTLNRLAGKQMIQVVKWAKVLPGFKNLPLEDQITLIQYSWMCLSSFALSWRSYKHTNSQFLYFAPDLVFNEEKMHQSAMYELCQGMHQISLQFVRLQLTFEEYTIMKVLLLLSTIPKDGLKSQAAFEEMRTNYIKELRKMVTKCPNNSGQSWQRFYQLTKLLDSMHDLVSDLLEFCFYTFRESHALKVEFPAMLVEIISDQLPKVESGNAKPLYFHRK", "test": "Displacement of TAMRA-labeled dexamethasone from mineralocorticoid receptor (unknown origin) by fluorescence polarization assay"}, "[4]": {"test": "Clearance in Sprague-Dawley rat at 2 mg/kg, iv", "type": "ADME, organism-based", "parameters": "dose 2 mg/kg, route intravenous", "conditions": "in vivo"}, "[5]": {"test": "Efflux ratio of permeability from basolateral to apical side over apical to basolateral side in human Caco2 cells", "type": "ADME, cell-based", "conditions": "Caco-2"}, "[6]": {"target": "T2, Glucocorticoid receptor (Homo sapiens, UniProt P04150)", "T2 sequence (P04150 whole entry)": "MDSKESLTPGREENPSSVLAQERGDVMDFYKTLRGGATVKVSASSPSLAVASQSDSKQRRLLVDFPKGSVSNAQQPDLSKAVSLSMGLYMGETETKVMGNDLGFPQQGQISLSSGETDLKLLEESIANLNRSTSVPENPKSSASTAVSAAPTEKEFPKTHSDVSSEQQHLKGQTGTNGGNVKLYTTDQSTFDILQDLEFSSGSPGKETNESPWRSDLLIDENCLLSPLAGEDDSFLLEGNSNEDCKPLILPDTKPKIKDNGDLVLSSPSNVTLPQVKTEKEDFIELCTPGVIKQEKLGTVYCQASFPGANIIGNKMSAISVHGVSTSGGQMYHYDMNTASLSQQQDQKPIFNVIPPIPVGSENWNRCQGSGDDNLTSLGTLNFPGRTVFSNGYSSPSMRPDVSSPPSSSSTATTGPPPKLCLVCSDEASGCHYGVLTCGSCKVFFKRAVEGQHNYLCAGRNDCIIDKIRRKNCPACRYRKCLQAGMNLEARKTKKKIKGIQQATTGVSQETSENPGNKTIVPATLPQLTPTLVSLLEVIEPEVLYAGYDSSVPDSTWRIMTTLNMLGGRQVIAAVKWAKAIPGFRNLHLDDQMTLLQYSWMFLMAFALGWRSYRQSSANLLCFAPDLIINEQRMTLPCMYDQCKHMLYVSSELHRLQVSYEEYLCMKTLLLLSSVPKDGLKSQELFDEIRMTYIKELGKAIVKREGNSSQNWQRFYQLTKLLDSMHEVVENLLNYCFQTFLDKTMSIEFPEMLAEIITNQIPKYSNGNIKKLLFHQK", "test": "Transactivation of glucocorticoid receptor in human HeLa cells harboring MMTV promoter at 2 uM by luciferase reporter gene assay relative to dexamethasone", "type": "cell-based", "conditions": "read-out: Efficacy"}, "[7]": {"system": "Mus musculus", "test": "Toxicity in B10.RIII mouse assessed as insulin level in serum at 100 mg/kg, po qd for 5 weeks relative to control", "type": "organism-based", "parameters": "dose 100 mg/kg, route oral", "conditions": "in vivo, 840 h"}, "[8]": {"system": "Mus musculus", "test": "Antiarthritic activity in po dosed B10.RIII mouse collagen/complete Freund's adjuvant-induced arthritis model assessed as reduction of disease score administered po qd for 5 weeks relative to control", "type": "functional", "conditions": "840 h"}, "[9]": {"test": "Mean residence time in Sprague-Dawley rat at 2 mg/kg, iv", "type": "ADME, organism-based", "parameters": "dose 2 mg/kg, route intravenous", "conditions": "in vivo"}, "[10]": {"system": "Mus musculus", "test": "Antiinflammatory activity in mouse assessed as inhibition of LPS-induced TNFalpha production at 1 mg/kg, po", "type": "functional"}, "[11]": {"system": "Mus musculus", "test": "Toxicity in po dosed B10.RIII mouse assessed as insulin level in serum administered po qd for 5 weeks relative to control", "type": "organism-based", "conditions": "in vivo, 840 h"}, "[12]": {"test": "Permeability across basolateral to apical side in human Caco2 cells", "type": "ADME, cell-based", "conditions": "Caco-2, read-out: permeability"}, "[13]": {"system": "Mus musculus", "test": "Toxicity in B10.RIII mouse assessed as free fatty acid level in serum at 100 mg/kg, po qd for 5 weeks relative to control", "type": "organism-based", "parameters": "dose 100 mg/kg, route oral", "conditions": "in vivo, 840 h"}, "[14]": {"target": "T2, Glucocorticoid receptor", "description": "Agonist activity at glucocorticoid receptor in human foreskin fibroblasts assessed as inhibition of IL-1-induced IL-6 production by trans-repression assay"}, "[15]": {"organism": "Homo sapiens", "test": "Selectivity ratio of IC50 for progesterone receptor (unknown origin) to IC50 for glucocorticoid receptor (unknown origin)"}, "[16]": {"system": "Mus musculus", "test": "Toxicity in po dosed B10.RIII mouse assessed as triglyceride level in serum administered po qd for 5 weeks relative to control", "type": "organism-based", "conditions": "in vivo, 840 h"}, "[17]": {"system": "Mus musculus", "test": "Toxicity in B10.RIII mouse assessed as body fate level in serum at 100 mg/kg, po qd for 5 weeks relative to control", "type": "organism-based", "parameters": "dose 100 mg/kg, route oral", "conditions": "in vivo, 840 h"}, "[18]": {"system": "Mus musculus", "test": "Toxicity in B10.RIII mouse assessed as insulin level in serum at 30 mg/kg, po qd for 5 weeks relative to control", "type": "organism-based", "parameters": "dose 30 mg/kg, route oral", "conditions": "in vivo, 840 h"}, "[19]": {"target": "T2, Glucocorticoid receptor", "remark": "listed apart in the source", "description": "Transactivation of glucocorticoid receptor in human HeLa cells harboring MMTV promoter by luciferase reporter gene assay"}, "[20]": {"test": "Equilibrium solubility of the compound at pH 7.4", "type": "physicochemical", "conditions": "buffer"}, "[21]": {"system": "Mus musculus", "test": "Toxicity in B10.RIII mouse assessed as triglyceride level in serum at 100 mg/kg, po qd for 5 weeks relative to control", "type": "organism-based", "parameters": "dose 100 mg/kg, route oral", "conditions": "in vivo, 840 h"}, "[22]": {"test": "AUC (infinity) in Sprague-Dawley rat at 30 mg/kg, po", "type": "ADME, organism-based", "parameters": "time infinity, dose 30 mg/kg, route oral", "conditions": "plasma"}}, "data": [{"smiles": "Cc1ccc(F)cc1C(C)(C)C[C@@](O)(Cc1cc2cnccc2[nH]1)C(C)(C)C", "values": [{"measurement": "Activity", "setting": "[1]", "value": -84, "unit": "%"}, {"measurement": "Activity", "setting": "[2]", "value": 25, "unit": "%"}, {"measurement": "IC50", "setting": "[3]", "value": 420, "unit": "nM"}, {"measurement": "clearance", "setting": "[4]", "value": 48, "unit": "mL/min/kg"}, {"measurement": "efflux ratio", "setting": "[5]", "value": 1.3}, {"measurement": "Emax at 2 µM", "setting": "[6]", "value": 1, "unit": "%"}, {"measurement": "Activity", "setting": "[7]", "value": 224, "unit": "%"}, {"measurement": "ED50", "setting": "[8]", "value": 30, "unit": "mg/kg"}, {"measurement": "MRT", "setting": "[9]", "value": 1.38, "unit": "h"}, {"measurement": "inhibition in vivo at 1 mg/kg", "setting": "[10]", "value": 82, "unit": "%"}, {"measurement": "Activity", "setting": "[11]", "value": "Dose-dependent effect"}, {"measurement": "Papp B→A", "setting": "[12]", "value": 16.9, "unit": "×10⁻⁶ cm/s"}, {"measurement": "Activity", "setting": "[13]", "value": -27, "unit": "%"}, {"measurement": "IC50", "setting": "[14]", "value": 27, "unit": "nM"}, {"measurement": "Ratio IC50", "setting": "[15]", "value": "> 100"}, {"measurement": "Activity", "setting": "[16]", "value": "Dose-dependent effect"}, {"measurement": "Activity", "setting": "[17]", "value": -3, "unit": "%"}, {"measurement": "Activity", "setting": "[18]", "value": 60, "unit": "%"}, {"measurement": "IC50", "setting": "[19]", "value": "> 2000", "unit": "nM"}, {"measurement": "solubility thermodynamic", "setting": "[20]", "value": 15, "unit": "µg/mL"}, {"measurement": "Activity", "setting": "[21]", "value": 113, "unit": "%"}, {"measurement": "AUC(0-inf)", "setting": "[22]", "value": 6730, "unit": "ng·h/mL"}]}]}
